Experimental data as given in ChEMBL document CHEMBL4145534, “Computer-aided insights into receptor-ligand interaction for novel 5-arylhydantoin derivatives as serotonin 5-HT7 receptor agents with antidepressant activity” (Eur J Med Chem, 2018).

Legend:
[1] = molecular target: Beta-1 adrenergic receptor (Rattus norvegicus, UniProt P18090); experiment: Displacement of [3H]-CGP-12177 from beta1-adrenergic receptor in rat brain cortex after 1 hr by Microbeta scintillation counting method
[2] = molecular target: T1, Adrenergic receptor alpha-2 (Rattus norvegicus, UniProt P22086+P19328+P22909); experiment: Displacement of [3H]-clonidine from alpha2-adrenergic receptor in rat brain cortex after 30 mins by Microbeta scintillation counting method
T1 sequence (P22086 whole entry): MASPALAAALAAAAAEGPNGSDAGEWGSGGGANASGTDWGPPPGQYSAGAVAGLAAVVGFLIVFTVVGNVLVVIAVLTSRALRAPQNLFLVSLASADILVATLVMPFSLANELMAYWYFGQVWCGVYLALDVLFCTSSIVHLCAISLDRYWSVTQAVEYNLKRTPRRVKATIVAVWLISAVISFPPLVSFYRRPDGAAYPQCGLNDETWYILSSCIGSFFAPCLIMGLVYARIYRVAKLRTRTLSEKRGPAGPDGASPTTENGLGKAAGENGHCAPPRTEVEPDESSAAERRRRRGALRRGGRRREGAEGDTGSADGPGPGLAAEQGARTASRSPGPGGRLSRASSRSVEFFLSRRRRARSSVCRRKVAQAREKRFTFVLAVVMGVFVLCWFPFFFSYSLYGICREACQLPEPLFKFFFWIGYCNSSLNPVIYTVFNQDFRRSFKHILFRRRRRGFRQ
T1 sequence (P19328 whole entry): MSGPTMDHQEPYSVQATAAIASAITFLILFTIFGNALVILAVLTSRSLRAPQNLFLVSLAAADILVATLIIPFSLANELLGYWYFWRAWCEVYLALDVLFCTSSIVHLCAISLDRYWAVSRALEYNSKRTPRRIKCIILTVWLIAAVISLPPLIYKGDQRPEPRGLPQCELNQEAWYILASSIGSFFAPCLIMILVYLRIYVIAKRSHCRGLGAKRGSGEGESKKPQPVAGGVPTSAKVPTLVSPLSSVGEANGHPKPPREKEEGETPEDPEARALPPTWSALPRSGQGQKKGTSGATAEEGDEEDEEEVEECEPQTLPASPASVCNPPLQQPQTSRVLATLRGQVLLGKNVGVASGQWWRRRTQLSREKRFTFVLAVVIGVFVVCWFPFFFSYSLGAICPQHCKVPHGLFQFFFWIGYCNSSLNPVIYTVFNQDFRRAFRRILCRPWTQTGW
T1 sequence (P22909 whole entry): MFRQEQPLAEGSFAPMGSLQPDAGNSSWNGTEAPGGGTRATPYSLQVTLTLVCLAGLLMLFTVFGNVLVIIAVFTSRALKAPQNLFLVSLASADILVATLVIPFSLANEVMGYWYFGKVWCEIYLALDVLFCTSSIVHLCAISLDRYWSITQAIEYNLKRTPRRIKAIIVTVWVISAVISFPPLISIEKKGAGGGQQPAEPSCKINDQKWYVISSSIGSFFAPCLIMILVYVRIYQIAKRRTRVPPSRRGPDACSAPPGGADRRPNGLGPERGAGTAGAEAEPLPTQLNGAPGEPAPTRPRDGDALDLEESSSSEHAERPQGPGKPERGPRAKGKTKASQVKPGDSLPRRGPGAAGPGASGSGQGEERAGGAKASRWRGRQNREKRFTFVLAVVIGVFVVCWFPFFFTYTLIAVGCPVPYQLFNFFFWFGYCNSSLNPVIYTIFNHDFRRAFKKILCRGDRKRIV

D(2) dopamine receptor = D(2) dopamine receptor (Homo sapiens, UniProt P14416); experiment: Displacement of [3H]-raclopride from human D2L receptor expressed in HEK293 cell membranes after 1 hr by Microbeta scintillation counting method
Sequence of D(2) dopamine receptor (P14416 whole entry): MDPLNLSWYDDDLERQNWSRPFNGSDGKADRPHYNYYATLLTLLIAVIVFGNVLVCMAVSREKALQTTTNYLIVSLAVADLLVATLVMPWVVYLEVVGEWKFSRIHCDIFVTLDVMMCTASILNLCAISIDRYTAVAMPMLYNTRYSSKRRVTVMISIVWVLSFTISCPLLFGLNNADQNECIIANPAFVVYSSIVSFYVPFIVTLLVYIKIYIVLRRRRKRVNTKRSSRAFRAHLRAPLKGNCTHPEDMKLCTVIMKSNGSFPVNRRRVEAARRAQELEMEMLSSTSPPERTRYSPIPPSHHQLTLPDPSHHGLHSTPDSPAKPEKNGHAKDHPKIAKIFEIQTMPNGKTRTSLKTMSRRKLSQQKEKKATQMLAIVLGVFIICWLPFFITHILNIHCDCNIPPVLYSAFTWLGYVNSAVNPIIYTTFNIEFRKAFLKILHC

[3] = molecular target: 5-hydroxytryptamine receptor 7 (Homo sapiens, UniProt P34969); experiment: Displacement of [3H]-5-CT from human 5HT7BR expressed in HEK293 cell membranes after 1 hr by Microbeta scintillation counting method
Sequence of 5-hydroxytryptamine receptor 7 (P34969 whole entry): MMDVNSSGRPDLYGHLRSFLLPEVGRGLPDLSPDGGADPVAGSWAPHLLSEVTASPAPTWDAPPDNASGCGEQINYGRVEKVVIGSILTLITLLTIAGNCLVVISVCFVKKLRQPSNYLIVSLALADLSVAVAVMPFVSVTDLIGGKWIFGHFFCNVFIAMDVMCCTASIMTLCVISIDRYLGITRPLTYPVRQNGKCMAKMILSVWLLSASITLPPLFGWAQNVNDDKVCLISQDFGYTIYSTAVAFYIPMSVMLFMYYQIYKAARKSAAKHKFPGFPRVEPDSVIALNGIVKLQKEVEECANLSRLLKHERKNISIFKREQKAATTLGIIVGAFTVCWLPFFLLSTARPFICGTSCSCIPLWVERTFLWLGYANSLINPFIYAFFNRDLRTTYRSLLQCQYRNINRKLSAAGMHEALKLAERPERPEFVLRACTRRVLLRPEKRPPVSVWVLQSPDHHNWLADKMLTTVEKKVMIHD

Sequence of Beta-1 adrenergic receptor (P18090 whole entry): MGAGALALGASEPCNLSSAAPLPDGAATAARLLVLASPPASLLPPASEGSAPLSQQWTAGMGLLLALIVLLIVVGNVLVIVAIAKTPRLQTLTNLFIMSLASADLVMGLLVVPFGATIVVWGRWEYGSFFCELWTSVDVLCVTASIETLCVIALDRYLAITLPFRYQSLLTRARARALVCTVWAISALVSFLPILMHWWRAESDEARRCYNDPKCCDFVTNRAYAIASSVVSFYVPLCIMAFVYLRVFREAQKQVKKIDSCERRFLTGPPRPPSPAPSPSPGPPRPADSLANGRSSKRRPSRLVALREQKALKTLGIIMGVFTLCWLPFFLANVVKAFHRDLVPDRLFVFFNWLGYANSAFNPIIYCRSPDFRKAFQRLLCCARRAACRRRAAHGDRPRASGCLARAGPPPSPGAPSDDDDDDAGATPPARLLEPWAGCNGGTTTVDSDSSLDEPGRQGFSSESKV

Row | Ki [1] [µM] | Ki [2] [µM] | Ki (D(2) dopamine receptor) [µM] | Ki [3] [µM] | SMILES
1 | > 10 | > 5 | 0.506 | 0.007 | CC1(c2ccc(Br)cc2)NC(=O)N(CC(O)CN2CCN(c3ccccc3C#N)CC2)C1=O.Cl (racemic)
2 | > 10 | > 5 | 0.267 | 0.01 | COc1ccccc1N1CCN(CC(O)CN2C(=O)NC(C)(c3ccc(Br)cc3)C2=O)CC1.Cl (racemic)
3 | > 10 | > 10 | 1.28 | 0.009 | CC1(c2ccc(Cl)cc2)NC(=O)N(CC(O)CN2CCN(c3ccccc3C#N)CC2)C1=O.Cl (racemic)
